Calls of active or inactive are those of the source.
Columns and labels:
Type in all cases: functional, organism-based
Staphylococcus aureus [1] = assay: Antimicrobial activity against catheter-associated biofilm of methicillin-resistant Staphylococcus aureus assessed as reduction of CFU
Staphylococcus aureus [2] = assay: Antimicrobial activity against catheter-associated biofilm of methicillin-sensitive Staphylococcus aureus assessed as reduction of CFU
[3] = system: Staphylococcus epidermidis; assay: Antimicrobial activity against catheter-associated biofilm of methicillin-resistant Staphylococcus epidermidis assessed as reduction of CFU
Klebsiella pneumoniae [4] = assay: Antimicrobial activity against catheter-associated biofilm of Klebsiella pneumoniae assessed as reduction of CFU
Acinetobacter baumannii = assay: Antimicrobial activity against catheter-associated biofilm of Acinetobacter baumannii assessed as reduction of CFU
Staphylococcus aureus [5] = assay: Antimicrobial activity against catheter-associated biofilm of methicillin-resistant Staphylococcus aureus
[6] = system: Staphylococcus epidermidis; assay: Antimicrobial activity against catheter-associated biofilm of methicillin-resistant Staphylococcus epidermidis
Klebsiella pneumoniae [7] = assay: Antimicrobial activity against catheter-associated biofilm of Klebsiella pneumoniae

Measured: Activity

CN(C)c1cc(NC(=O)CNC(C)(C)C)c(O)c2c1C[C@H]1C[C@H]3[C@H](N(C)C)C(O)=C(C(N)=O)C(=O)[C@@]3(O)C(O)=C1C2=O
active: Staphylococcus aureus [1] | Staphylococcus aureus [2] | [3] | Klebsiella pneumoniae [4] | Acinetobacter baumannii

CC(=O)N[C@@H](CS)C(=O)O
active: Staphylococcus aureus [5] | [6] | Klebsiella pneumoniae [7]

From ChEMBL document CHEMBL1145537, “Combination of tigecycline and N-acetylcysteine reduces biofilm-embedded bacteria on vascular catheters” (Antimicrob Agents Chemother, 2007)
